From patent US20050049201A1, “Detection and removal of lead using lead-binding proteins” (priority 2001, published 2005)
pKd: −log10 of the molar value.

How the values were obtained:
[1] = Solid phase assay for lead: protein on nitrocellulose with chromogenic dye; conditions: combined results, various buffers, pH, salts and dyes
Procedure: A solid phase assay for the detection of lead was also developed using one or more synthetically produced lead-binding proteins. Both TB4 and ACBP and the various mutants that have been generated from them can be used in this assay. The experiment is performed by binding the protein to a solid surface support, such as nitrocellulose paper, cotton, glass microfibers, or polystyrene beads using, for example, methods described herein. Then the sample to be tested, such as saliva or blood, is placed onto the surface and allowed to react with the protein. After washing with buffer, or example a neutral non-chelating buffer to remove any unreacted material, the sample is treated with a ligand that can detect a lead-leading binding protein complex, for example, a ligand that can cause a color chance upon detecting a lead-protein complex. Examples of such ligands include, sodium sulfide and sodium rhodizonic acid. Furthermore, the concentration of the lead in the sample being tested may be determined by the intensity of the spot produced upon binding of the dye. […]
As a control, the assay was tested using solutions containing several different buffers, pH conditions, and salts for reaction with the sodium sulfide and sodium rhodizonic acid dyes used. […] The pH was determined empirically for rhodizonic acid over a range of pH 4 to pH 8. […]

[2] = lead binding; Quintanilla-Vega 1995, Smith 1998; read-out: dissociation constant (Kd) of high affinity lead-binding region; cited from earlier work

thymosin beta-4 (MSDKPDMAEIEKFDKSKLKKTETQEKNPLPSKETIEQEKQAGES; listed as Homo sapiens) [TB4]
performance of solid phase lead detection assay [1]: works well under various conditions
pKd [2]: ~9.00
